Data published in the supplement of paper PMC10307832.

Tests used:
Experiment in all cases: relative viability (nuclei count vs DMSO), 5 days (fraction); higher = more cells survive
Sorafenib = compound: CNC(=O)c1cc(Oc2ccc(NC(=O)Nc3ccc(Cl)c(C(F)(F)F)c3)cc2)ccn1 [Sorafenib]
In short: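 Viability was read as treated-well nuclei divided by vehicle-well nuclei, using the median across plates. Lung cancer cell lines in 1536-well plates were kept overnight at 37 °C, pinned with five √10-spaced library-drug doses, and after 5 days were Hoechst-stained, imaged at 4× and counted in MetaXpress. Plates passed only with control CV below 25% and at least one doubling.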

Sorafenib + Lapatinib = compound: CNC(=O)c1cc(Oc2ccc(NC(=O)Nc3ccc(Cl)c(C(F)(F)F)c3)cc2)ccn1 [Sorafenib] + CS(=O)(=O)CCNCc1ccc(-c2ccc3ncnc(Nc4ccc(OCc5cccc(F)c5)c(Cl)c4)c3c2)o1 [Lapatinib] (partner 2 µM)
In short: (§1)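 Dosing by pin tool came one day after lung cancer cell lines were seeded in 1536-well plates, using either one drug or a fixed anchor-drug dose plus five library-drug doses (not always all listed) in √10 steps. After 5 days, nuclei were counted on 4× images. Relative viability is treated-well nuclei count divided by vehicle-well nuclei count, and values are medians of duplicate plates.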

Sorafenib + Crizotinib = compound: CNC(=O)c1cc(Oc2ccc(NC(=O)Nc3ccc(Cl)c(C(F)(F)F)c3)cc2)ccn1 [Sorafenib] + C[C@@H](Oc1cc(-c2cnn(C3CCNCC3)c2)cnc1N)c1c(Cl)ccc(F)c1Cl [Crizotinib] (partner 1 µM)
In short: as §1

Sorafenib + Vorinostat = compound: CNC(=O)c1cc(Oc2ccc(NC(=O)Nc3ccc(Cl)c(C(F)(F)F)c3)cc2)ccn1 [Sorafenib] + O=C(CCCCCCC(=O)Nc1ccccc1)NO [Vorinostat] (partner 1 µM)
In short: as §1

Sorafenib + Luminespib = compound: CNC(=O)c1cc(Oc2ccc(NC(=O)Nc3ccc(Cl)c(C(F)(F)F)c3)cc2)ccn1 [Sorafenib] + CCNC(=O)c1noc(-c2cc(C(C)C)c(O)cc2O)c1-c1ccc(CN2CCOCC2)cc1 [Luminespib] (partner 0.01 µM)
In short: as §1

Cell Line	relative viability (Sorafenib; 0.08 µM)	relative viability (Sorafenib; 0.253 µM)	relative viability (Sorafenib; 2.53 µM)	relative viability (Sorafenib; 8 µM)	relative viability (Sorafenib + Lapatinib; first compound 0.08 µM)	relative viability (Sorafenib + Lapatinib; first compound 0.253 µM)	relative viability (Sorafenib + Lapatinib; first compound 8 µM)	relative viability (Sorafenib + Crizotinib; first compound 0.08 µM)	relative viability (Sorafenib + Crizotinib; first compound 0.253 µM)	relative viability (Sorafenib + Crizotinib; first compound 2.53 µM)	relative viability (Sorafenib + Crizotinib; first compound 8 µM)	relative viability (Sorafenib + Vorinostat; first compound 0.08 µM)	relative viability (Sorafenib + Vorinostat; first compound 0.253 µM)	relative viability (Sorafenib + Vorinostat; first compound 2.53 µM)	relative viability (Sorafenib + Vorinostat; first compound 8 µM)	relative viability (Sorafenib + Luminespib; first compound 0.08 µM)	relative viability (Sorafenib + Luminespib; first compound 0.253 µM)	relative viability (Sorafenib + Luminespib; first compound 8 µM)	relative viability (Sorafenib + Lapatinib; first compound 2.53 µM)	relative viability (Sorafenib + Luminespib; first compound 2.53 µM)
201T	0.975	0.943	1.07	0.918	1.06	0.991	1.03	1.03	1.01	1.13	1.08	1.01	0.946	0.963	0.926	1.06	1.12	1.04	–	–
A-427	0.999	0.902	0.94	0.752	1.04	0.948	1.06	0.895	0.855	0.826	0.369	0.84	0.894	0.914	1.01	0.971	0.951	0.831	1.01	0.757
ABC-1	1.07	0.808	–	0.584	1.25	1.19	0.726	1.4	1.07	–	1.04	1.23	0.811	1.22	0.482	0.815	0.378	0.158	1.23	0.538
BEN	1.08	0.826	1.15	0.823	0.857	0.675	0.614	1	0.844	0.862	0.68	0.567	0.621	0.685	0.593	0.439	0.173	0.0694	0.782	0.2
CAL-12T	1.01	0.882	0.985	0.644	0.768	0.685	0.682	0.751	0.581	0.524	0.381	0.723	0.722	0.72	0.494	0.14	0.363	0.147	0.724	0.347
COR-L23	1.04	0.926	0.957	0.781	1.08	0.795	0.914	0.902	0.609	0.657	0.551	0.512	0.413	0.478	0.32	0.731	0.688	0.135	0.921	0.525
COR-L 105	1.11	0.867	1.15	0.691	0.413	0.393	0.389	0.874	0.73	0.839	0.855	1.01	0.696	0.946	0.551	1	–	0.623	0.482	1.05
ChaGo-K-1	–	0.915	1	0.867	–	–	–	1.22	1.09	1.07	–	0.737	0.689	0.775	0.557	0.708	0.446	0.325	–	0.606
EKVX	1.05	0.954	0.963	0.952	0.248	0.2	0.229	0.96	0.846	0.917	0.877	0.718	0.723	0.832	0.803	0.963	0.864	0.854	0.249	0.808
EMC-BAC-2	1.05	0.786	0.938	0.873	0.924	0.813	0.879	0.648	0.728	0.762	0.809	0.481	–	0.546	0.479	1.21	1.08	0.812	0.883	1.17
EPLC-272H	1.19	0.842	1.09	0.774	1.08	0.838	0.735	–	0.819	–	0.855	0.524	0.436	0.429	0.388	0.26	0.303	0.335	1.04	0.263
H3255	1.07	0.89	0.99	0.755	0.56	0.222	0.244	1.06	0.809	0.799	0.62	–	0.722	0.723	0.618	1	0.781	–	0.295	0.925
HARA	1.17	0.79	1.07	0.767	0.838	0.625	0.638	1.15	1.02	1.03	0.931	0.517	0.6	0.512	0.569	0.936	0.696	0.526	0.825	0.609
HCC-15	1.05	0.912	1.05	0.69	0.816	0.777	0.617	0.836	0.774	0.813	0.566	0.973	0.764	0.83	0.576	0.533	0.26	0.185	0.831	0.338
HCC-44	0.989	0.886	0.941	0.901	0.926	0.919	0.812	0.811	0.735	0.725	0.565	1.03	1.05	1.09	1.16	1.09	1.01	0.992	0.949	1.02
HCC-78	1.13	0.953	1.05	1.05	1.06	0.755	0.86	0.394	0.361	0.483	0.507	0.459	0.331	0.532	0.496	–	–	–	0.815	–
HCC-366	1	1.02	1	0.999	1.21	0.859	1.04	0.705	0.464	0.549	0.356	0.315	0.343	0.256	0.22	–	–	–	0.805	–
HCC-827	1.06	0.954	1.02	0.956	0.23	0.191	0.237	–	0.918	0.94	0.853	0.837	0.572	0.844	0.667	0.709	0.525	0.638	0.155	0.59

Cell Line	relative viability (Sorafenib; 0.08 µM)	relative viability (Sorafenib; 0.253 µM)	relative viability (Sorafenib; 2.53 µM)	relative viability (Sorafenib; 8 µM)	relative viability (Sorafenib + Lapatinib; first compound 0.08 µM)	relative viability (Sorafenib + Lapatinib; first compound 0.253 µM)	relative viability (Sorafenib + Lapatinib; first compound 8 µM)	relative viability (Sorafenib + Crizotinib; first compound 0.08 µM)	relative viability (Sorafenib + Crizotinib; first compound 0.253 µM)	relative viability (Sorafenib + Crizotinib; first compound 2.53 µM)	relative viability (Sorafenib + Crizotinib; first compound 8 µM)	relative viability (Sorafenib + Vorinostat; first compound 0.08 µM)	relative viability (Sorafenib + Vorinostat; first compound 0.253 µM)	relative viability (Sorafenib + Vorinostat; first compound 2.53 µM)	relative viability (Sorafenib + Vorinostat; first compound 8 µM)	relative viability (Sorafenib + Luminespib; first compound 0.08 µM)	relative viability (Sorafenib + Luminespib; first compound 0.253 µM)	relative viability (Sorafenib + Luminespib; first compound 8 µM)	relative viability (Sorafenib + Lapatinib; first compound 2.53 µM)	relative viability (Sorafenib + Luminespib; first compound 2.53 µM)
HOP-62	0.986	0.858	0.764	0.589	0.928	0.872	0.93	1.01	0.901	0.84	0.57	0.736	0.363	0.368	0.276	0.981	0.865	0.886	0.879	0.705
IA-LM	–	0.646	0.563	0.514	0.491	0.358	0.446	0.573	0.623	0.494	0.4	–	0.647	0.436	0.508	–	–	–	0.456	–
LC-2-ad	1.03	0.834	0.939	0.762	1.05	0.878	0.314	0.496	0.447	0.511	0.421	0.723	0.674	0.617	0.514	1.01	1.04	0.879	0.587	1.06
LCLC-97TM1	1.16	0.778	–	0.703	0.678	0.707	0.603	0.326	0.358	0.364	0.121	0.68	0.674	0.65	0.576	0.97	0.743	0.56	0.701	0.716
LCLC-103H	0.975	0.946	1.13	1.03	–	–	–	1.12	1.14	1.28	1.13	0.813	0.75	0.778	0.737	0.964	0.939	0.837	–	1.03
LK-2	1.09	0.766	0.848	0.494	1.22	0.804	0.671	0.208	–	0.263	0.256	0.371	0.298	0.143	0.148	0.228	0.197	0.172	0.906	0.175
LOU-NH91	1.1	0.967	1.17	–	–	0.71	0.728	0.841	0.751	0.844	0.654	1.03	0.881	1.11	0.493	0.306	0.359	0.336	0.829	0.418
LU99A	0.997	0.94	0.777	0.696	1.16	0.998	0.895	0.541	0.547	0.6	0.543	0.487	0.445	0.437	0.192	0.359	0.25	0.318	0.952	0.204
LXF-289	1.06	0.97	1.03	0.958	0.91	0.831	–	0.816	0.814	0.824	0.757	0.758	0.757	0.848	0.681	0.706	0.648	0.588	0.938	0.634
NCI-H441	1.05	0.783	0.908	0.584	–	–	–	0.727	0.64	0.532	0.473	0.638	0.756	0.547	0.47	0.326	–	0.287	–	0.29
NCI-H1395	1.1	0.76	1.02	0.775	1.21	0.714	0.633	–	–	–	–	0.872	–	1.06	0.748	0.742	0.703	0.53	1.05	0.576
NCI-H1563	1.07	0.958	1.02	0.779	1.01	0.92	0.671	0.893	0.993	0.889	0.674	–	–	–	–	0.533	0.471	0.529	0.884	0.527
NCI-H1703	0.859	0.46	0.271	0.249	0.716	0.435	0.221	0.588	0.209	0.141	0.157	–	–	–	–	–	–	–	0.28	–
NCI-H1792	0.877	0.843	0.892	0.773	0.948	0.811	0.879	1.05	0.973	1	0.87	–	–	–	–	0.438	0.358	0.353	0.936	0.534
NCI-H1793	1.06	0.944	1.15	0.596	0.71	0.833	0.221	–	–	–	–	0.783	0.739	1.05	0.578	0.23	0.207	0.187	0.949	0.199
NCI-H2342	–	0.728	–	0.656	–	–	–	–	–	–	–	0.806	0.628	0.689	0.645	0.662	0.637	0.582	–	0.597
SW 900	0.996	0.781	1.13	0.865	–	–	–	–	–	–	–	0.71	0.398	0.72	0.618	0.147	0.16	0.165	–	0.171
